US20260124237A1, “CARTILAGE REGENERATION COMPOSITION” (KOBAYASHI PHARMACEUTICAL CO., LTD., priority 2021, published 2026)

Assays:
Assay type in all cases: cell-based
[1] = tested on: Human iPS cell-derived mesenchymal stem cells; assay: Differentiation to cartilaginous cells and cartilage matrix production in two-dimensional culture (Alcian blue); conditions: Table 2a: garcinia extract or glucosamine (B4) alone; about 10 days culture; Alcian blue OD 620 nm; control = 1
Excerpt: In accordance with PLOS ONE, (US), 2014, 9 (12), e112291. DOI: 10.1371/journal.pone.0112291 (hereinafter, described as “Document A”), mesenchymal stem cells were induced from human normal iPS cells via neural crest cells, added with an equivalent amount of a cell freezing damage protection liquid CP-1 (manufactured by KYOKUTO PHARMACEUTICAL INDUSTRIAL CO., LTD), and cryopreserved.
Human iPS cell-derived mesenchymal stem cells were thawed and grown, and seeded in a 96 well plate (manufactured by Corning) in 1×10^5 cells/well. After 24 hours, the culture supernatant was removed, and replaced with a culture medium to induce differentiation to cartilaginous cells in accordance with Document A. To the culture medium to induce differentiation to cartilaginous cells, the garcinia extract and/or the component (B) (components (B1) to (B4)) as test substances were added so that the final concentration was the concentration shown in Tables 1 to 3. No test substance was added to the control group. The cells were cultured for about 10 days, and then fixed with a 4% paraformaldehyde·phosphate buffer (manufactured by FUJIFILM Wako Pure Chemical Corporation). After fixed, the cells were stained with an Alcian blue solution (manufactured by MUTO PURE CHEMICALS CO., LTD.) for 1 hour, and the dye was eluted using a 6 M guanidine hydrochloride solution (manufactured by Tokyo Chemical Industry Co., Ltd.). The eluate was transferred to a 96 well plate, and the OD value of each well at 620 nm was measured with a microplate reader to measure the amount of matrix produced by differentiation-induced cartilaginous cells.

[2] = tested on: human bone marrow-derived mesenchymal stem cells; assay: Induction of differentiation to cartilaginous cells in three-dimensional culture (safranin O area); conditions: for Differentiated cartilaginous cell area ratio: control = 1; for activity to induce differentiation to cartilaginous cells (in words): summary of Tables 4 to 11
Experimental: In accordance with Tissue Engineering, (US), 2010, 16 (1), p 81-91. DOI: 10.1089=ten.tec.2008.0693, mesenchymal stem cells were isolated from human normal bone marrow in a dedicated culture medium, and then the cells were grown. The grown cells were recovered, added with an equivalent amount of a cell freezing damage protection liquid CP-1 (KYOKUTO PHARMACEUTICAL INDUSTRIAL CO., LTD), and cryopreserved.
It is known that cartilaginous cells dedifferentiate in two-dimensional culture. As a culture system of cartilaginous cells closer to nature, a technique called three-dimensional culture is adopted. The thawed and grown human bone marrow-derived mesenchymal stem cells were dispensed into 15 mL tubes (made of TPP) by 2.5×10^5 cells, and centrifuged at 1000 rpm for 3 minutes at room temperature. The supernatant was removed and replaced with 0.5 mL of a culture medium to induce differentiation to cartilaginous cells in accordance with Document A. At the same time, as test substances, the garcinia extract, HCA·Ca, and/or the component (B) (components (B1) to (B4)) were added at the concentration shown in Tables 4 to 11. After cultured for 21 days, the cells were fixed in a 4% paraformaldehyde·phosphate buffer for 12 hours, dehydrated in 70% ethanol, and then embedded in paraffin, and then specimens were prepared. In the prepared specimen, the acidic polysaccharides as a cartilage matrix was stained with safranin O, and then the morphology of differentiated cartilaginous cells was observed using an optical microscope (magnification: 10 times). Furthermore, regarding the area showing a red color by safranin O staining, the relative area (differentiated cartilaginous cell area ratio) was calculated using an image analysis software Image J such that the control (Comparative Example 1) had the area of 1.
Except that the component (component (B4)) shown in Table 12 (a) and Table 12 (b) was used as the component (B), and the addition amount of the component (A) and the component (B) (component (B4)) was as shown in Table 12 (a) and Table 12 (b), the same procedure as in Test example 2 was carried out to calculate the differentiated cartilaginous cell area ratio and measure the amount of GAG. The results of the differentiated cartilaginous cell area ratio are shown in Table 12 (a) and Table 12 (b), and the measurement results of the amount of GAG are shown in FIG. 5.

[3] = tested on: human bone marrow-derived mesenchymal stem cells; assay: Cartilage matrix production activity (amount of GAG in pellets); conditions: FIGS. 1 to 4; pellets after 21 days three-dimensional culture, papain digestion
Experimental: LLC is solubilized in 100 mM phosphate buffer pH 7.4, 5 mM L-cysteine hydrochloride monohydrate, and 10 mM EDTA), and then the amount of GAG (glycosaminoglycan) was measured using a GAG quantification kit (manufactured by Blyscan). The larger the amount of GAG, the larger the amount of cartilage matrix produced. […] The results of the differentiated cartilaginous cell area ratio are shown in Table 12 (a) and Table 12 (b), and the measurement results of the amount of GAG are shown in FIG. 5.

[4] = Table 12a, Test Example 3: HCA·Ca 25 μM or constituent sugar (B4) 2.5 μM alone
[5] = Table 6: garcinia extract and/or glucosamine (B4), 21 days, safranin O red area
[6] = Table 7: HCA·Ca and/or glucosamine (B4), 21 days, safranin O red area

| Molecule | Ratio of cartilage matrix production [1] | Differentiated cartilaginous cell area ratio [2, 4] | further results |
| --- | --- | --- | --- |
| N[C@H]1C(O)O[C@H](CO)[C@@H](O)[C@@H]1O (stereo partly shown) [compound 6, Glucosamine] | 1.00 | – | – |
| CC(=O)N[C@H]1C(O)O[C@H](CO)[C@@H](O)[C@@H]1O (stereo partly drawn) [compound 41, N-acetyl-D-glucosamine] | – | 1.8 | – |
| CC(=O)N[C@H]1C(O)O[C@H](COS(=O)(=O)[O-])[C@@H](O)[C@@H]1O.[Na+] (stereo partly drawn) [compound 42, Sodium N-acetyl-D-glucosamine 6-sulfate] | – | 2 | – |
| N[C@H]1C(O)O[C@H](CO)[C@@H](O)[C@@H]1O (stereo partly shown) [compound 34, Glucosamine] | – | – | Differentiated cartilaginous cell area ratio [2, 5]: 0.2; Differentiated cartilaginous cell area ratio [2, 6]: 0.2 |
| N[C@H]1C(O)O[C@H](CO)[C@@H](O)[C@@H]1O (stereo partly shown) [compound 12, Glucosamine] | 1.02 | – | – |
| N[C@H]1C(O)O[C@H](CO)[C@@H](O)[C@@H]1O (stereo partly shown) [compound 9, Glucosamine] | 1.01 | – | – |
| N[C@H]1C(O)O[C@H](CO)[C@@H](O)[C@@H]1O (stereo partly shown) [compound 7, Glucosamine] | 1.01 | – | – |
| N[C@H]1C(O)O[C@H](CO)[C@@H](O)[C@@H]1O (stereo partly shown) [compound 33, Glucosamine] | – | – | Differentiated cartilaginous cell area ratio [2, 5]: 0.1; Differentiated cartilaginous cell area ratio [2, 6]: 0.1 |
| O=C([O-])C[C@@](O)(C(=O)[O-])[C@H](O)C(=O)[O-].O=C([O-])C[C@@](O)(C(=O)[O-])[C@H](O)C(=O)[O-].[Ca+2].[Ca+2].[Ca+2] [compound 39, (−) Hydroxycitric acid-3 calcium] | – | 1.8 | – |
| O=C[C@H](O)[C@@H](O)[C@H](O)[C@H](O)C(=O)O [compound 43, D-glucuronic acid] | – | 0.7 | – |
| O=C([O-])C[C@@](O)(C(=O)[O-])[C@H](O)C(=O)[O-].O=C([O-])C[C@@](O)(C(=O)[O-])[C@H](O)C(=O)[O-].[Ca+2].[Ca+2].[Ca+2] [compound 32, (−) Hydroxycitric acid-3 calcium] | – | – | Differentiated cartilaginous cell area ratio ([2]; Table 5: HCA·Ca and/or chondroitin sulfate (B1), 21 days, safranin O red area): 1.7; Differentiated cartilaginous cell area ratio [2, 6]: 1.7; Differentiated cartilaginous cell area ratio ([2]; Table 9: HCA·Ca and/or hyaluronic acid (B3), 21 days, safranin O red area): 3.5; Differentiated cartilaginous cell area ratio ([2]; Table 11: HCA·Ca and/or proteoglycan (B2), 21 days, safranin O red area): 1.5 |
| CC(=O)N[C@H]1C(O)O[C@H](CO)[C@H](O)[C@@H]1O (stereo partly drawn) [compound 45, N-acetyl-D-galactosamine] | – | 1 | – |
| N[C@H]1C(O)O[C@H](CO)[C@@H](O)[C@@H]1O (stereo partly shown) [compound 8, Glucosamine] | 1.01 | – | – |
| Cl.N[C@H]1C(O)O[C@H](CO)[C@H](O)[C@@H]1O (stereo partly drawn) [compound 44, D-(+)-galactosamine hydrochloride] | – | 0.7 | – |
| Sodium hyaluronate [hyaluronic acid] | – | – | cartilage matrix production activity (amount of GAG, in words) [3]: almost no activity to induce differentiation to cartilaginous cells; activity to induce differentiation to cartilaginous cells (in words) [2]: almost no activity to induce differentiation to cartilaginous cells |
| O=C([O-])C[C@@](O)(C(=O)[O-])[C@H](O)C(=O)[O-].O=C([O-])C[C@@](O)(C(=O)[O-])[C@H](O)C(=O)[O-].[Ca+2].[Ca+2].[Ca+2] [calcium hydroxycitrate, (−) Hydroxycitric acid-3 calcium] | – | – | cartilage matrix production activity (amount of GAG, in words) [3]: exhibits a cartilage matrix production activity, the degree of which is limited; activity to induce differentiation to cartilaginous cells (in words) [2]: exhibits an activity to induce differentiation to cartilaginous cells, the degree of which is limited |
| N[C@H]1C(O)O[C@H](CO)[C@@H](O)[C@@H]1O (stereo partly shown) [compound 10, Glucosamine] | 1.01 | – | – |
| N[C@H]1C(O)O[C@H](CO)[C@@H](O)[C@@H]1O (stereo partly shown) [glucosamine, Glucosamine] | – | – | cartilage matrix production activity (amount of GAG, in words) [3]: reduce the cartilage matrix production activity; activity to induce differentiation to cartilaginous cells (in words) [2]: reduce the activity to induce differentiation to cartilaginous cells |
| N[C@H]1C(O)O[C@H](CO)[C@@H](O)[C@@H]1O (stereo partly shown) [compound 13, Glucosamine] | 1.00 | – | – |
| CC(=O)N[C@H]1C(O)O[C@H](COS(=O)(=O)[O-])[C@H](O)[C@@H]1O.[Na+] (stereo partly drawn) [compound 46, Sodium N-acetyl-D-galactosamine 6-sulfate] | – | 1.4 | – |
| N[C@H]1C(O)O[C@H](CO)[C@@H](O)[C@@H]1O (stereo partly shown) [compound 11, Glucosamine] | 1.01 | – | – |
| Cl.N[C@H]1C(O)O[C@H](CO)[C@@H](O)[C@@H]1O (stereo partly drawn) [compound 40, D-(+)-glucosamine hydrochloride] | – | 0.6 | – |
| N[C@H]1C(O)O[C@H](CO)[C@@H](O)[C@@H]1O (stereo partly shown) [compound 14, Glucosamine] | 1.00 | – | – |
